From ChEMBL document CHEMBL5604061, “ASAP - WNV NS2B-NS3 protease fluorescence dose response” (2024) come the findings set out here.

A word on the IC50: it is the concentration at which inhibition is half-maximal. Low values mean greater potency in that assay, high ones weaker potency in that assay.

The assay concerns the target T1, NS3 (West Nile virus, UniProt K4FQI5).
T1 sequence (K4FQI5 whole entry): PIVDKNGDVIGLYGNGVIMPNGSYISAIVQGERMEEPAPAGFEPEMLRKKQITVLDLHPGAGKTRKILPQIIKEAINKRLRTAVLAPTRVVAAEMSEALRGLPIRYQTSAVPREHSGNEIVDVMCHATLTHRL
Description: Functional biochemical assay to identify treatments for viral infectious disease that targets West Nile NS2B-NS3 protease. Utilizing a direct enzyme activity measurement method, reading the fluorescence intensity is used to characterize the relative potency of inhibitors as IC50. Set-up: species or system NY-99.
`CN(c1ccc2c(c1)CNC2)[C@H](C(=O)NCC(F)F)c1cc(Cl)cc(C2CC2)c1` came in with a concentration for half-maximal inhibition (IC50) of 0.131 µM.

Compound `CCOC(=O)[C@H](Nc1ccc2c(c1)CNC2)c1cc(Cl)cc(C2CC2)c1` registered an IC50 of 0.845 µM.

The compound `O=C(O)c1ccc(-c2cc(NC(=O)c3cc(F)cc4[nH]ncc34)cc3c2CNC3)cc1` displayed an IC50 of 1.15 µM.

Regarding `O=C(Nc1ccc2c(c1)CNC2)c1cc(F)cc(C=C2CCS(=O)(=O)CC2)c1`, the IC50 was 14.5 µM.

In the case of `O=C(NCC(F)F)[C@H](Nc1ccc2c(c1)CNC2)c1cc(Cl)ccc1Sc1ccccc1`, the IC50 stood at 9.51 µM.

In the case of `CO[C@H]1C[C@H](n2cc3c(C(=O)Nc4ccc5c(c4)CNC5)cc(Cl)cc3n2)C1`, the midpoint of inhibition, the IC50, lay at 13.9 µM.

The compound `N#Cc1cccc(-c2nc3c(C(=O)Nc4ccc5c(c4)CNC5)cc(F)cc3[nH]2)c1` returned an IC50 of 3.76 µM.

In turn, `O=C(Nc1cc2c(c(-c3c[nH]c(=O)c(F)c3)c1)CNC2)c1cc(F)cc2[nH]ncc12` returned an IC50 of 0.668 µM.

The compound `COC[C@]1(c2nc3c(C(=O)Nc4ccc5c(c4)CNC5)cc(F)cc3[nH]2)CCOC1` came in with an IC50 of 20.5 µM.

`Cc1cc(C(=O)Nc2ccc3c(c2)CNC3)cc2nc[nH]c12` yielded an IC50 of 12.5 µM.

`N#Cc1c[nH]c2ccc(C(=O)Nc3ccc4c(c3)CNC4)cc12` registered an IC50 of 9.06 µM.

Turning to `O=C(Nc1ccc2c(c1)CNC2)c1cc(F)cc(C2=CCCOC2)c1`, the IC50 is 9.61 µM.

As to `O=C(Nc1ccc2c(c1)CNC2)c1ccc2[nH]cc(C3CCNCC3)c2c1`, the IC50 came to 11.5 µM.

`CNC(=O)[C@H](Nc1ccc2c(c1)CNC2)c1cc(Cl)cc2[nH]c(-c3ccccc3)nc12` gave an IC50 of 0.281 µM.

In the case of `CC(C)Cn1cc2c(C(=O)Nc3ccc4c(c3)CNC4)cc(Cl)cc2n1`, the IC50 is 14.7 µM.

For the compound `O=C(NCCCF)[C@H](Nc1ccc2c(c1)CNC2)c1cc(Cl)cc(C2CC2)c1`, the IC50 is 0.249 µM.

Compound `COCc1cc(Cl)cc([C@H](Nc2ccc3c(c2)CNC3)C(=O)NCC(F)F)c1` gave an IC50 of 0.154 µM.

`COC(=O)[C@H](C)n1cc2c(C(=O)Nc3ccc4c(c3)CNC4)cc(Cl)cc2n1` gave an IC50 of 9.12 µM.

In turn, `O=C(NCC(F)F)[C@H](Nc1ccc2c(c1)CNC2)c1cc(Cl)ccc1Cl` displayed an IC50 of 3.01 µM.

Turning to `N#Cc1ccc(-c2nc3c(C(=O)Nc4ccc5c(c4)CNC5)cc(F)cc3[nH]2)cc1`, the IC50 was 2.91 µM.

`O=C(Nc1ccc2c(c1)CNC2)c1cc(F)cc(-c2ccc3c(=O)[nH]ncc3c2)c1` came in with an IC50 of 5.15 µM.

On to `COCn1ncc2c(C(=O)Nc3ccc4c(c3)CNC4)cc(Cl)cc21`, for which inhibition was half-maximal at 3.73 µM (IC50).

The compound `COc1cccc(-c2nc3c(C(=O)Nc4ccc5c(c4)CNC5)cc(F)cc3[nH]2)c1` had an IC50 of 6.6 µM.

In turn, `CO[C@H]1C[C@H](n2ncc3c(C(=O)Nc4ccc5c(c4)CNC5)cc(Cl)cc32)C1` returned an IC50 of 2.55 µM.

`O=C(Nc1ccc2c(c1)CNC2)c1cc(F)cc2[nH]c(CC[C@H]3CCCOC3)nc12` registered an IC50 of 3.78 µM.

As for `COc1cc(C(=O)Nc2ccc3c(c2)CNC3)cc2ccoc12`, the IC50 was 48.9 µM.

`O=C(NCC(F)F)[C@H](Nc1ccc2c(c1)CNC2)c1cccc(Cl)c1` had an IC50 of 0.477 µM.

On to `CC(C)c1nnc(-c2nc3c(C(=O)Nc4ccc5c(c4)CNC5)cc(F)cc3[nH]2)s1`, for which the IC50 is 11.8 µM.

The compound `O=C(Nc1ccc2c(c1)CNC2)c1cc(Cl)cc2nn(C3COC3)cc12` registered an IC50 of 42.5 µM.

`CCCn1cc2c(C(=O)Nc3ccc4c(c3)CNC4)cc(Cl)cc2n1` returned an IC50 of 1.97 µM.

`CN1C(=O)CC[C@H]1c1nc2c(C(=O)Nc3ccc4c(c3)CNC4)cc(F)cc2[nH]1` returned an IC50 of 14.1 µM.

`COc1ccc(-c2nc3c(C(=O)Nc4ccc5c(c4)CNC5)cc(F)cc3[nH]2)nn1`: the IC50 came out at 3.68 µM.

`CCOCC1(c2nc3c(C(=O)Nc4ccc5c(c4)CNC5)cc(F)cc3[nH]2)CC1` registered an IC50 of 9.95 µM.

With `O=C1CCc2c(cccc2C(=O)Nc2ccc3c(c2)CNC3)N1`, inhibition was half-maximal at 10.8 µM (IC50).

`O=C(Nc1ccc2c(c1)CNC2)c1cc(F)cc2[nH]c(-c3cccc(F)c3)nc12` yielded an IC50 of 7.29 µM.

`N#Cc1cc2c(cc1NC(=O)c1cc(F)cc3[nH]ncc13)CNC2`: the IC50 turned out to be 0.242 µM.

On to `O=C(NCC(F)F)[C@H](Nc1ccc2c(c1)CNC2)c1cc(Br)cc2[nH]ccc12`, for which the IC50 was 0.556 µM.

With `Cc1cccc(-c2nc3c(C(=O)Nc4ccc5c(c4)CNC5)cc(F)cc3[nH]2)c1`, inhibition was half-maximal at 26 µM (IC50).

`Cc1ccccc1-c1nc2c(C(=O)Nc3ccc4c(c3)CNC4)cc(F)cc2[nH]1`: the IC50 amounted to 8.51 µM.

`Cc1ncc(-c2cc(F)cc(C(=O)Nc3ccc4c(c3)CNC4)c2)s1` showed an IC50 of 2.28 µM.

With `CO[C@H](C)Cn1cc2c(C(=O)Nc3ccc4c(c3)CNC4)cc(Cl)cc2n1`, the IC50 was determined as 19.8 µM.

Take `CC(C)NC(=O)[C@H](Nc1ccc2c(c1)CN(C)C2)c1cc(Cl)cc2[nH]ncc12`: the midpoint of inhibition, the IC50, lay at 1.67 µM.

Compound `O=C(NCC(F)F)[C@H](Nc1ccc2c(c1)CNC2)c1cc(Cl)cc(Cl)c1Cl` came in with an IC50 of 0.936 µM.

Turning to `CCc1cc2c(cc1NC(=O)c1cc(F)cc3[nH]ncc13)CNC2`, the midpoint of inhibition, the IC50, lay at 1.59 µM.

The compound `O=C(Nc1ccc2c(c1)CNC2)c1cc(F)cc(-c2c[nH]c(=O)c(F)c2)c1` returned an IC50 of 0.665 µM.

The compound `COc1ccc(Cl)cc1[C@H](Nc1ccc2c(c1)CNC2)C(=O)NCC(F)F` registered an IC50 of 0.531 µM.

`O=C(Nc1ccc2c(c1)CNC2)c1cc(F)cc2[nH]c(-c3ccccc3F)nc12`: inhibition was half-maximal at 2.39 µM (IC50).

Compound `O=C(Nc1ccc2c(c1)CNC2)c1cc(F)cc2[nH]c(-c3cnccc3O)nc12` displayed an IC50 of 9.93 µM.

Turning to `O=C(Nc1ccc2c(c1)CNC2)c1cc(Cl)cc2c1cnn2C[C@H]1CCCO1`, the IC50 came to 6.08 µM.

The compound `O=C(Nc1ccc2c(c1)CNC2)c1cc(F)cc(/C=C/c2ccccc2)c1` yielded an IC50 of 2.91 µM.

The compound `O=C(Nc1ccc2c(c1)CN[C@H]2[C@H](O)CO)c1cc(F)cc2[nH]ncc12` yielded an IC50 of 6.73 µM.

With `O=C(NCC(F)F)[C@H](Nc1ccc2c(c1)CNC2)c1cc(Cl)cc2c1CCC2`, it took 0.42 µM to reach half-maximal inhibition (IC50).

The compound `C[C@]1(O)C(=O)Nc2cc(F)cc(C(=O)Nc3ccc4c(c3)CNC4)c21` showed an IC50 of 5.58 µM.

As to `O=C(NCC(F)F)[C@H](Nc1ccc2c(c1)CNC2)c1cc(Cl)cc2ccoc12`, the IC50 came out at 0.185 µM.

Turning to `Cn1ncc2c(C(=O)Nc3ccc4c(c3)CNC4)cc(Cl)cc21`, the midpoint of inhibition, the IC50, lay at 1.88 µM.

For the compound `O=C(Nc1ccc2c(c1)CN[C@H]2CCO)c1cc(F)cc2[nH]ncc12`, the IC50 was determined as 1.66 µM.

`O=C(Nc1ccc2c(c1)CNC2)c1cccc2c1[C@]1(CCN(C(=O)OCc3ccccc3)C1)C(=O)N2` came in with an IC50 of 3.55 µM.

The compound `CCc1cccc(-c2nc3c(C(=O)Nc4ccc5c(c4)CNC5)cc(F)cc3[nH]2)c1` came in with an IC50 of 18.9 µM.

`Cc1cnccc1-c1cc(NC(=O)c2cc(F)cc3[nH]ncc23)cc2c1CNC2` showed an IC50 of 2.77 µM.

Turning to `O=C(Nc1ccc2c(c1)CNC2)c1cc(F)cc2[nH]c(-c3ccc(F)cc3)nc12`, 5.37 µM corresponded to half-maximal inhibition (IC50).

The compound `O=C(O)CCCc1cc(NC(=O)c2cc(F)cc3[nH]ncc23)cc2c1CNC2` gave an IC50 of 1.51 µM.

`CC(C)n1ncc2c(C(=O)Nc3ccc4c(c3)CNC4)cc(Cl)cc21` registered an IC50 of 18.2 µM.

The compound `Cn1ccc(-c2cc(F)cc(C(=O)Nc3ccc4c(c3)CNC4)c2)cc1=O` gave an IC50 of 2.23 µM.

The compound `Cc1cc(-c2cc(F)cc(C(=O)Nc3ccc4c(c3)CNC4)c2)[nH]n1` had an IC50 of 3.74 µM.

`O=C(Nc1ccc2c(c1)CNC2)c1cc(Cl)cc2c1cnn2C1CCOCC1` displayed an IC50 of 1.45 µM.

Turning to `COc1cc(C#N)cc([C@H](Nc2ccc3c(c2)CNC3)C(=O)NCC(F)F)c1`, the IC50 was found to be 0.243 µM.

For the compound `N#Cc1csc2cc(C(=O)Nc3ccc4c(c3)CNC4)ccc12`, the IC50 came out at 25.2 µM.

Consider `O=C(Nc1ccc2c(c1)CNC2)c1cc(F)cc(C2=CCOCC2)c1`, for which the IC50 came out at 9.32 µM.

`C=CC[C@H]1NCc2cc(N[C@H](C(=O)NCC(F)F)c3cc(Cl)cc(C4CC4)c3)ccc21` displayed an IC50 of 0.289 µM.

In turn, `O=C(Nc1ccc2c(c1)CNC2)c1cc(F)cc2[nH]c(-c3ccc(F)cc3O)nc12` gave an IC50 of 24.1 µM.

Regarding `COc1cc(-c2cc(NC(=O)c3cc(F)cc4[nH]ncc34)cc3c2CNC3)ccn1`, the midpoint of inhibition, the IC50, lay at 0.801 µM.

Consider `CS(=O)(=O)N1CC[C@]2(C1)C(=O)Nc1cccc(C(=O)Nc3ccc4c(c3)CNC4)c12`, for which the IC50 was 6.28 µM.

With `CSCCCNC(=O)[C@H](Nc1ccc2c(c1)CNC2)c1cc(Cl)cc(C2CC2)c1`, it took 0.573 µM to reach half-maximal inhibition (IC50).

In turn, `Cn1nccc1-c1cc(NC(=O)c2cc(F)cc3[nH]ncc23)cc2c1CNC2` showed an IC50 of 1.43 µM.

Consider `CC(C)(c1nc2c(C(=O)Nc3ccc4c(c3)CNC4)cc(F)cc2[nH]1)S(C)(=O)=O`, for which half-maximal inhibition (IC50) was put at 9.71 µM.

In turn, `CC(C)n1cc2c(C(=O)Nc3ccc4c(c3)CNC4)cc(Cl)cc2n1` displayed an IC50 of 1.73 µM.

`COC(=O)c1cc2c(cc1NC(=O)c1cc(F)cc3[nH]ncc13)CNC2`: inhibition was half-maximal at 1 µM (IC50).

In the case of `NCCc1csc2cc(C(=O)Nc3ccc4c(c3)CNC4)ccc12`, the half-maximal inhibitory concentration (IC50) is 2.09 µM.

Take `O=C(Nc1ccc2c(c1)CNC2)c1cc(F)cc2[nH]c(CCc3cccnc3)nc12`: the IC50 came to 3.31 µM.

The compound `O=C(Nc1ccc2c(c1)CNC2)c1cc(F)c2[nH]c(=O)[nH]c2c1` gave an IC50 of 18 µM.

As to `O=C(Nc1ccc2c(c1)CN[C@H]2CO)c1cc(F)cc2[nH]ncc12`, half-maximal inhibition (IC50) required 4.53 µM.

`CCCn1ncc2c(C(=O)Nc3ccc4c(c3)CNC4)cc(Cl)cc21` registered an IC50 of 12.5 µM.

Turning to `O=C(Nc1cc2c(c(C3=CCS(=O)(=O)CC3)c1)CNC2)c1cc(F)cc2[nH]ncc12`, the IC50 turned out to be 0.892 µM.

On to `O=C(Nc1cc2c(c(-c3ccnnc3)c1)CNC2)c1cc(Cl)cc2[nH]ncc12`, for which inhibition was half-maximal at 3.06 µM (IC50).

Turning to `O=C(Nc1ccc2c(c1)CNC2)c1cc(Cl)cc2c1cnn2C1CCC1`, 1.7 µM corresponded to half-maximal inhibition (IC50).

As to `O=C(Nc1ccc2c(c1)CNC2)c1cc(F)cc(-c2ccncc2)c1`, the IC50 was determined as 3.65 µM.

The compound `O=C(Nc1cc2c(c(C3=CCOCC3)c1)CNC2)c1cc(F)cc2[nH]ncc12` registered an IC50 of 0.627 µM.
